Laboratory results reported in patent publication US4087432A, “1H-imidazo(4,5-b)pyridine compounds” (Eli Lilly and Company, priority 1975, dated 1978).

Experiments:
Conditions in all cases: 8 lbs/acre
Corn = assay: Postemergent injury rating, corn; assay type: in vivo; set-up: key: injury rating scale, 4 = death
Protocol: (§1) Various of the compounds to be employed as active agent in accordance with the present invention were evaluated for preemergent application to various species of plants. In this evaluation, a soil was prepared consisting of one part masonry sand and one part shredded top soil blended together in a cement mixer. One gallon of this soil was placed in a 25 × 35 cm. galvanized flat and was patted down with a bench brush until level. A three-row marker was used to make 21/2 cm. deep furrows in approximately two-fifths of the flat. Crop seeds consisting of four kernels of corn, five cotton seeds and five soybean seeds were placed in these furrows. A four-row template was then placed on the remaining soil and the indicated approximate numbers of each of the following seeds were planted, one species to each section: foxtail (millet), 80-100 seeds; velvetleaf (40-50 seeds); rough pigweed (150-250 seeds); and large crabgrass (100-150 seeds).
(§2) Sufficient soil was added to cover the entire flat. Thus, the weed seeds were covered to a depth of about 6 mm. and the crop seeds were covered to a depth of about 3 cm.
(§3) In assaying the effect of the composition as preemergent herbicides, a flat prepared as above, taken either on the day of planting or on the next day, was placed in a chamber equipped with a turntable and an air exhaust. The herbicidal composition, either a spray-type emulsion or a wettable powder, was applied to the flat with a modified DeVilbiss atomizer hooked to an air source. Twelve and one-half milliliters of the composition under test were applied to each flat either on the day of planting or the succeeding day. Injury ratings and observations as to type of injury were made eleven to twelve days after treatment. The injury rating scale used was as follows:
(§4) 4--death When more than one determination was carried out at a given rate, an average value was calculated for the injury rating. Each compound evaluated was formulated as a spray by one of the following procedures. In one method the particular compound was wetted by grinding in a mortar with one part of polyoxyethylene sorbitan monolaurate. Five hundred parts of water were added slowly to the resultant creamy paste to give an aqueous dispersion with a surfactant concentration of 0.2 percent. This dispersion was entirely satisfactory for spray application. In a second procedure the compound was dissolved in one volume of acetone, and the acetone solution was diluted with nineteen volumes of water containing 0.1 percent of polyoxyethylene sorbitan monolaurate.
(§5) Representative compounds of the present invention were evaluated for postemergent application to plants including corn and several weed species. The evaluation was carried out in accordance with the procedures of Examples 49-52 except that the test solutions were applied about 9-12 days after the preparation and seeding of the flats.

Foxtail = assay: Postemergent injury rating, foxtail; assay type: in vivo, foxtail (millet); set-up: key: injury rating scale, 4 = death
Protocol: as §1, §2, §3, §4, §5

Crabgrass = assay: Postemergent injury rating, crabgrass; assay type: in vivo, large crabgrass; set-up: key: injury rating scale, 4 = death
Protocol: as §1, §2, §3, §4, §5

Velvet Leaf = assay: Postemergent injury rating, velvetleaf; assay type: in vivo
Protocol: as §1, §2, §3, §4, §5

Pigweed = assay: Postemergent injury rating, pigweed; assay type: in vivo, rough pigweed; set-up: key: injury rating scale, 4 = death
Protocol: as §1, §2, §3, §4, §5

SMILES | Injury Rating, Corn (Corn) | Injury Rating, Foxtail (Foxtail) | Injury Rating, Crabgrass (Crabgrass) | Injury Rating, Velvet Leaf (Velvet Leaf) | Injury Rating, Pigweed (Pigweed)
Nc1c(Br)nc2nc(C(F)(F)F)n(O)c2c1Br [5,7-dibromo-6-amino-1-hydroxy-2-(trifluoromethyl)-1H-imidazo(4,5-b)pyridine] | 1 | 3 | 3 | 2 | 3
On1c(C(F)(F)F)nc2nc(Br)c(Cl)c(Br)c21 [5,7-dibromo-6-chloro-1-hydroxy-2-(trifluoromethyl)-1H-imidazo(4,5-b)pyridine] | 1 | 4 | 4 | 3 | 4
